Laboratory results as given in patent US20230381127A1, “COMPOSITIONS AND METHODS FOR MOOD ENHANCEMENT” (EPITRACKER, INC., priority 2020, published 2023).

Experiments:
[1] = 6-week voluntary electronic customer survey on stress and mood after daily fatty15 (C15:0) supplement; assay type: in vivo, human; details: 100 mg daily oral (fatty15 capsule), 6 weeks; 135 responders; response of 7 or greater on 1-10 scale = agreement
Description: (§1) An odd-chain saturated fatty acid dietary supplement, containing an encapsulated pure (>98%) free fatty acid C15:0 powder and called fatty15™, was available as a consumer health product. Recommended dosing is a single, 100 mg capsule taken orally once a day.
6-Week Survey. Approximately six weeks following receipt of the C15:0 supplement, fattyl5, customers were provided a voluntary electronic questionnaire to evaluate potential near-term benefits, including the questions: “Overall how much would you agree with the following statement: Since starting fatty15, I have been feeling more calm and/or less stressed.” and “Overall how much would you agree with the following statement: Since starting fatty15, I generally feel happier and/or not as bothered by things that used to upset me.”
Survey responders were asked to select a number between 1 and 10, in which 1=Strongly disagree and 10=Strongly agree. A response of 7 or greater was considered an agreement with the statement. Survey responders were also asked if fatty15 had become a part of their daily health routine.

CB1 = biological target: T1, CB1 (Homo sapiens, UniProt P21554); test: SAFETYscan E/IC50 ELECT functional assay, CB1 receptor agonist mode; assay type: cell-based; details: at 20 μM; relative to positive control CP 55940 assigned 100% activity
T1 construct: purchased DiscoverX/Eurofins SAFETYscan E/IC50 ELECT
Description: (§2) This study assessed potential pharmacologic targets of pentadecanoic acid. Specifically, this study examined agonist and antagonist activities of synthetic pentadecanoic acid across 78 assays using SAFETYscan E/IC50 ELECT (DiscoverX/Eurofins, Fremont, California). Briefly, a variety of standardized and optimized functional assays were used to assess pentadecanoic acid's pharmacologic targets, including G protein coupled receptors (ADORA2A, ADRA1A, ADRA2A, ADRB1, ADRB2, CB1, CB2, CCK1, D1, D2S, ETA, H1, H2, M1 M2, M3, OPRD1, OPRK1, OPRM1, 5HTR1A, 5HTR1B, 5HTR2A, 5HTR2B, AVPR1A), kinases (LCK, INSR, VEGFR2, ROCK1), transporters (DAT, NET, SERT), ion channels (GABAA, 5-HT3, CA1.2, HERG, KVLQT1/MINK, NA1.5, NMDAR1/2B, NACHR), nuclear receptors (AR, GR), and non-kinase enzymes (COX1, COX2, ACHE, MAOA, PDE3A, PDE4D2). Ten-point concentration curves for both agonist (EC50) and antagonist (IC50) activity were established for each target. Maximum activity (%) was also determined based on comparisons with internal positive controls, which were assigned 100% activity.

[2] = Customer testimonials on stress and mood with fatty15 (C15:0) supplement; assay type: in vivo, human; details: daily oral supplementation 100 mg/day (fatty15); summary of testimonials in the 1st table
Description: as §1, with “is” for “was”, “day. Customers were provided opportunities to share their experience, including through voluntary surveys and customer rating programs.” for “day.”

CB2 = biological target: T2, CB2 (Homo sapiens, UniProt P34972); test: SAFETYscan E/IC50 ELECT functional assay, CB2 receptor agonist mode; assay type: cell-based; details: at 20 μM; relative to positive control CP 55940 assigned 100% activity
T2 construct: purchased DiscoverX/Eurofins SAFETYscan E/IC50 ELECT
Description: as §2

T1 sequence (P21554 whole entry): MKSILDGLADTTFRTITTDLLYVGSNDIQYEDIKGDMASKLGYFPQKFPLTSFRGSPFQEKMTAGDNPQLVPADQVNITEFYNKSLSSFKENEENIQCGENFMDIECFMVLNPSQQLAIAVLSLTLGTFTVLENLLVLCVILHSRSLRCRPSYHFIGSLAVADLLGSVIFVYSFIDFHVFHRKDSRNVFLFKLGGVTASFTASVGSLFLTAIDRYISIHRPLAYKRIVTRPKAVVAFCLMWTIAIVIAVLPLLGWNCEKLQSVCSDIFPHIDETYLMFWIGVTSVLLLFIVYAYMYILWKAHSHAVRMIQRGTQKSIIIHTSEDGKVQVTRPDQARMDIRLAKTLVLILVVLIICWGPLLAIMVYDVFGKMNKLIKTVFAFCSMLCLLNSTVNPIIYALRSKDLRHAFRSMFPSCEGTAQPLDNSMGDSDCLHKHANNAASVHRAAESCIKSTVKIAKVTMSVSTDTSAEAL
T2 sequence (P34972 whole entry): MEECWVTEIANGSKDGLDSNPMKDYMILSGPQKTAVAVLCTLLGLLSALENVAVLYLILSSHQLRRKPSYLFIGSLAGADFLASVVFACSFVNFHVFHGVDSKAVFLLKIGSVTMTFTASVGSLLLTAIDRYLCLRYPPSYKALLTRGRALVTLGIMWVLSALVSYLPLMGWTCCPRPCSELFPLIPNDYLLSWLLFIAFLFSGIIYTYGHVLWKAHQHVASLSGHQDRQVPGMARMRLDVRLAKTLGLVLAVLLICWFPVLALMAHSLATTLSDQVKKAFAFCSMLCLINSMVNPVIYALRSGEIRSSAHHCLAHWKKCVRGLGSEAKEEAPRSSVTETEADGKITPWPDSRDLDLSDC

SMILES: CCCCCCCCCCCCCCC(=O)O [pentadecanoic acid]
- customers reporting feeling calmer and/or less stressed [1]: 41%
- customers reporting feeling generally happier and/or not as bothered by things that used to upset them [1]: 37%
- CB1 agonist activity (CB1): 24.5%
- effect on stress and mood per customer testimonials [2]: can lower stress and calm and enhance mood
- CB2 agonist activity (CB2): 18.2%
